# Experimental data: patent US7776851B2, “Use of neurokinin antagonists in the treatment of urinary incontinence” (Novartis AG, priority 2003, dated 2010)
# Legend:
# [1] = tested on: longitudinal muscle-nerve preparations from the guinea-pig urinary bladder; experiment: Substance P-stimulated detrusor contractility, organ bath; format: cell-based
# Method: Detrusor contractility is tested in longitudinal muscle-nerve preparations from the guinea-pig urinary bladder (Mackenzie and Burnstock 1984). In organ bath studies, isometric contractile responses are evoked by cumulative application of substance P (0.1 nM up to 30 μM). Substance P stimulates contractions in a concentration-dependent fashion (pD2=6.68±0.23; mean±SEM; n=5 preparations).
# conscious guinea pigs = experiment: 5-HTP-stimulated micturition (overactive urinary bladder responses) in conscious guinea pigs; format: in vivo, guinea pig; details: for decrease of micturition volume / decrease of voiding frequency: one hour prior to 5-HTP (10 mg/kg s.c.), assessed over 17 hours, mean±SEM
# Method: In conscious guinea pigs, an experimental paradigm is applied to stimulate micturition through subcutaneous administration of 5-hydroxytryptophan (5-HTP, 10 mg/kg). The measurement of both voiding frequency and micturition volume is used to quantify the effects of the compound of formula II (Belis, et al 1996). Vehicle or the compound of formula II (1 and 3 mg/kg) are dosed orally one hour prior to the stimulation with 5-HTP.
# The effects of vehicle and the compound of formula II are assessed over 17 hours in 4 to 8 animals. […] The compound of formula II attenuates the overactive bladder responses upon stimulation with 5-HTP.
# The effects are statistically significant at both doses tested (p<0.05; RM ANOVA, post-hoc Tukey test). See also FIG. 1.
# [2] = 5-HTP 10 mg/kg subcutaneous, over 17 hours
compound,measurement,setting,value
"CN(C(=O)c1cc(C(F)(F)F)cc(C(F)(F)F)c1)[C@@H](/C=C/C(=O)N[C@@H]1CCCCNC1=O)Cc1ccc(Cl)c(Cl)c1 [compound of formula II, (4R)-4-[N′-methyl-N′-(3,5-bistrifluoromethylbenzoyl)amino]-4-(3,4-dichlorobenzyl)-but-2-enoic acid N-[(R)-epsilon-caprolactam-3-yl]-amide]",Schild plot slope,"[1]; 10 nM, 100 nM and 1000 nM vs substance P",−0.98
same,"pA2 (Schild plot analysis), inhibition of substance P-evoked contractile responses","[1]; 10 nM, 100 nM and 1000 nM, competitive, substance P 0.1 nM up to 30 μM cumulative",7.97
same,decrease of micturition volume,conscious guinea pigs; 1 mg/kg p.o.,32.9%±4.5%
same,decrease of voiding frequency,conscious guinea pigs; 1 mg/kg p.o.,45.4%±7.1%
same,decrease of micturition volume,conscious guinea pigs; 3 mg/kg p.o.,36.6%±6.2%
same,decrease of voiding frequency,conscious guinea pigs; 3 mg/kg p.o.,26.2%±7.1%
substance P [reference compound],"pD2, stimulation of isometric contractions","[1]; cumulative application 0.1 nM up to 30 μM, mean±SEM, n=5 preparations",6.68±0.23
"N[C@@H](Cc1c[nH]c2ccc(O)cc12)C(=O)O [S-HTP, 5-hydroxytryptophan, reference compound]",increase of micturition volume as compared to control animals,conscious guinea pigs; [2],4.5 fold
same,increase of voiding frequency as compared to control animals,conscious guinea pigs; [2],2.7 fold
